The results in this text go back to patent US7855292B2, “Sulfonamide compounds” (Janssen Pharmaceutica NV, priority 2004, dated 2010).

Experiment [1] deals with T1, CCK-1 receptor (Homo sapiens, UniProt P32238).
T1 construct: expressed in transfected cells; host or cells: CHO-K1
T1 sequence (P32238 1-428): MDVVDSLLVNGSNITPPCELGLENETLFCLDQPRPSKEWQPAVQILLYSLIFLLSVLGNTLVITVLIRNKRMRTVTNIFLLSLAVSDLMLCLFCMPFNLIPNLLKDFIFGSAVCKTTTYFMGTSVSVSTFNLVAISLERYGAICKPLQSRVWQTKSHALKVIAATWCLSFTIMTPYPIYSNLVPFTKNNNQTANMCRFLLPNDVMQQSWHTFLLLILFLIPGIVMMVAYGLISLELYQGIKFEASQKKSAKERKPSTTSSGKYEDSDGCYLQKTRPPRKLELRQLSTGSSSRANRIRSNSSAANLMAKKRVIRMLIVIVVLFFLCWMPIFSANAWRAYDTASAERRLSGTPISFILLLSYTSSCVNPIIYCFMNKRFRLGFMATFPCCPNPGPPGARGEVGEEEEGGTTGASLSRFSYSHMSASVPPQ
The experiment can be described thus: CCK1 binding assay ([125I]-BH-CCK-8S displacement, CHO-K1 membranes). The conditions noted are these: membranes of CHO-K1 cells stably transfected with the CCK-1 receptor, 20 pM [125I]-BH-CCK-8S, 0.3 μM PD-134,308 present, 60 min at 21±3° C.; for Ki: read-out: CCK1 pKi (converted). Summed up:
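Membranes from CHO-K1 cells stably expressing CCK-1 incubated 1 h at 21±3° C with 20 pM [125I]-BH-CCK-8S in HEPES buffer pH 7.2 containing 0.3 μM PD-134,308 to block CCK-2. Bound radioactivity read by gamma counting after filtration. pKi derived via Cheng-Prusoff, with specific binding defined using 2-NAP.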

Experiment [2] concerns the target T2, CCK2 receptor (Homo sapiens, UniProt P32239).
T2 construct: analyzed for ZFP expression as well as CCK2R induction upon addition of doxycycline to the culture medium; endogenous in cells
T2 sequence (P32239 1-447): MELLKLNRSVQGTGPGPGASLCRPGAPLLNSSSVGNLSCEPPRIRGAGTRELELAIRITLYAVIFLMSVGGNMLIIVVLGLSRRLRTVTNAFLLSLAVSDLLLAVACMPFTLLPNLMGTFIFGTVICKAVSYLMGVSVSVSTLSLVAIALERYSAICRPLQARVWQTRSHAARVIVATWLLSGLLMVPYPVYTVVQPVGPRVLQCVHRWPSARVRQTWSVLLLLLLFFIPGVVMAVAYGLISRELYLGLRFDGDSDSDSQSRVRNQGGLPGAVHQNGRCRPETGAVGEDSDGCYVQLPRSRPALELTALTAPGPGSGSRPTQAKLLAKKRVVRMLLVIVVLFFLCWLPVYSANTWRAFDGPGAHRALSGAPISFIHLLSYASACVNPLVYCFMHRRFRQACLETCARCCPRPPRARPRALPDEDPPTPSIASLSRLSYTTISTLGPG
The experiment can be described thus: CCK2 binding assay ([125I]-BH-CCK-8S displacement, HEKZFP membranes). As to conditions: membranes of doxycycline-induced HEKZFP cells, 20 pM [125I]-BH-CCK-8S, 60 min at 21±3° C.; for Ki: read-out: CCK2 pKi (converted).

As for `COC(=O)[C@H](Cc1ccc(F)c(Br)c1)NC(=O)c1ccc(I)cc1NS(=O)(=O)c1c(F)cccc1F` [Example 125, (S)-3-(3-Bromo-4-fluoro-phenyl)-2-[2-(2,6-difluoro-benzenesulfonylamino)-4-iodo-benzoylamino]-propionic acid methyl ester], the Ki in experiment [1] is 316 nM; in experiment [2] it was 631 nM.
Turning to `O=C(N[C@@H](Cc1ccc(F)c(Br)c1)C(=O)O)c1ccc(I)cc1NS(=O)(=O)c1cccc2nccnc12` [Example 126, (S)-3-(3-Bromo-4-fluoro-phenyl)-2-[4-iodo-2-(quinoxaline-5-sulfonylamino)-benzoylamino]-propionic acid], the figures for the Ki in experiment [1] and in experiment [2] were 251 nM and 5.01 nM, respectively.
The like results for `O=C(N[C@@H](Cc1ccc(F)c(Br)c1)C(=O)O)c1ccc(I)cc1NS(=O)(=O)c1c(F)cccc1F` [Example 127, (S)-3-(3-Bromo-4-fluoro-phenyl)-2-[2-(2,6-difluoro-benzenesulfonylamino)-4-iodo-benzoylamino]-propionic acid] were, in that order, 200 nM and 79.4 nM.
Turning to `O=C(N[C@@H](Cc1ccc(Cl)c(Cl)c1)C(=O)NCc1cccc(Cl)c1)c1ccc(Cl)cc1NS(=O)(=O)c1cccc2nsnc12` [Example 128, (S)-2-(Benzo[1,2,5]thiadiazole-4-sulfonylamino)-4-chloro-N-[1-(3-chloro-benzylcarbamoyl)-2-(3,4-dichloro-phenyl)-ethyl]-benzamide], the Ki in experiment [1] is 100 nM; in experiment [2], 631 nM.
Consider `O=C(N[C@@H](Cc1ccc(Cl)c(Cl)c1)C(=O)NCc1ccccc1)c1ccc(Cl)cc1NS(=O)(=O)c1cccc2nsnc12` [Example 129, (S)-2-(Benzo[1,2,5]thiadiazole-4-sulfonylamino)-N-[1-benzylcarbamoyl-2-(3,4-dichloro-phenyl)-ethyl]-4-chloro-benzamide], for which the Ki is 100 nM in experiment [1] and 631 nM in experiment [2].
The like results for `O=C(N[C@@H](Cc1ccc(Cl)c(Cl)c1)C(=O)NCc1ccc(F)cc1)c1ccc(Cl)cc1NS(=O)(=O)c1cccc2nsnc12` [Example 130, (S)-2-(Benzo[1,2,5]thiadiazole-4-sulfonylamino)-4-chloro-N-[2-(3,4-dichloro-phenyl)-(4-fluoro-benzylcarbamoyl)-ethyl]-benzamide] were, in that order, 398 nM and 316 nM.
Turning to `O=C(N[C@@H](Cc1ccc(Cl)c(Cl)c1)C(=O)O)c1ccc(Br)cc1NS(=O)(=O)c1cccc2nsnc12` [Example 131, (S)-2-[2-(Benzo[1,2,5]thiadiazole-4-sulfonylamino)-4-bromo-benzoylamino]-3-(3,4-dichloro-phenyl)-propionic acid], the Ki is 158 nM in experiment [1] and 15.8 nM in experiment [2].
`O=C(N[C@@H](Cc1ccc(Cl)c(Cl)c1)C(=O)O)c1ccc(I)cc1NS(=O)(=O)c1cccc2nccnc12` [Example 132, (S)-3-(3,4-Dichloro-phenyl)-2-[4-iodo-2-(quinoxaline-5-sulfonylamino)-benzoylamino]-propionic acid]: the figures for the Ki in experiment [1] and in experiment [2] were 251 nM and 15.8 nM, respectively.
Consider `O=C(N[C@@H](Cc1ccc(Cl)cc1Cl)C(=O)O)c1ccc(I)cc1NS(=O)(=O)c1cccc2nsnc12` [Example 133, (S)-2-[2-(Benzo[1,2,5]thiadiazole-4-sulfonylamino)-4-iodo-benzoylamino]-3-(2,4-dichloro-phenyl)-propionic acid], for which the figures for the Ki in experiment [1] and in experiment [2] were 398 nM and 31.6 nM, respectively.
The like results for `O=C(N[C@@H](Cc1cc(F)c(Cl)cc1Cl)C(=O)O)c1ccc(I)cc1NS(=O)(=O)c1cccc2nsnc12` [Example 134, (S)-2-[2-(Benzo[1,2,5]thiadiazole-4-sulfonylamino)-4-iodo-benzoylamino]-3-(2,4-dichloro-5-fluoro-phenyl)-propionic acid] were, in that order, 501 nM and 20 nM.
The like results for `O=C(N[C@@H](Cc1cccc(I)c1)C(=O)O)c1ccc(I)cc1NS(=O)(=O)c1cccc2nsnc12` [Example 135, (S)-2-[2-(Benzo[1,2,5]thiadiazole-4-sulfonylamino)-4-iodo-benzoylamino]-3-(3-iodo-phenyl)-propionic acid] were, in that order, 501 nM and 7.94 nM.
The like results for `COC(=O)[C@H](Cc1ccc(Cl)c(I)c1)NC(=O)c1ccc(I)cc1NS(=O)(=O)c1cccc2nsnc12` [Example 136, (S)-2-[2-(Benzo[1,2,5]thiadiazole-4-sulfonylamino)-4-iodo-benzoylamino]-3-(4-chloro-3-iodo-phenyl)-propionic acid methyl ester] were, in that order, 39.8 nM and 316 nM.
As for `COC(=O)[C@H](Cc1ccc(Cl)c(I)c1)NC(=O)c1ccc(I)cc1NS(=O)(=O)c1cccc2nccnc12` [Example 137, (S)-3-(4-Chloro-3-iodo-phenyl)-2-[4-iodo-2-(quinoxaline-5-sulfonylamino)-benzoylamino]-propionic acid methyl ester], the values for the Ki in experiment [1] and in experiment [2] were 79.4 nM and 200 nM, respectively.
The like results for `O=C(N[C@@H](Cc1ccc(Cl)c(I)c1)C(=O)O)c1ccc(I)cc1NS(=O)(=O)c1cccc2nccnc12` [Example 138, (S)-3-(4-Chloro-3-iodo-phenyl)-2-[4-iodo-2-(quinoxaline-5-sulfonylamino)-benzoylamino]-propionic acid] were, in that order, 100 nM and 50.1 nM.
The like results for `O=C(N[C@@H](Cc1ccc(Cl)c(Cl)c1)C(=O)Nc1ccccc1)c1ccc(Cl)cc1NS(=O)(=O)c1cccc2nsnc12` [Example 139, (S)-2-(Benzo[1,2,5]thiadiazole-4-sulfonylamino)-4-chloro-N-[2-(3,4-dichloro-phenyl)-phenylcarbamoyl-ethyl]-benzamide] were, in that order, 79.4 nM and 631 nM.
`O=C(N[C@@H](Cc1ccc(Cl)c(Cl)c1)C(=O)N1CCCCC1)c1ccc(Cl)cc1NS(=O)(=O)c1cccc2nsnc12` [Example 140, (S)-2-(Benzo[1,2,5]thiadiazole-4-sulfonylamino)-4-chloro-N-[1-(3,4-dichloro-benzyl)-2-oxo-2-piperidin-1-yl-ethyl]-benzamide]: the Ki in experiment [1] was 126 nM; in experiment [2], 316 nM.
The like results for `O=C(N[C@@H](Cc1ccc(Cl)c(Cl)c1)C(=O)O)c1cc(Cl)c(Cl)cc1NS(=O)(=O)c1cccc2nsnc12` [Example 141, (S)-2-[2-(Benzo[1,2,5]thiadiazole-4-sulfonylamino)-4,5-dichloro-benzoylamino]-3-(3,4-dichloro-phenyl)-propionic acid] were, in that order, 100 nM and 63.1 nM.
On to `COC(=O)[C@H](Cc1ccc(Cl)c(Br)c1)NC(=O)c1ccc(Br)cc1NS(=O)(=O)c1cccc2nsnc12` [Example 142, (S)-2-[2-(Benzo[1,2,5]thiadiazole-4-sulfonylamino)-4-bromo-benzoylamino]-3-(3-bromo-4-chloro-phenyl)-propionic acid methyl ester], for which the Ki was 158 nM in experiment [1] and 631 nM in experiment [2].
The like results for `COC(=O)[C@H](Cc1ccc(F)c(Br)c1)NC(=O)c1ccc(Br)cc1NS(=O)(=O)c1cccc2nsnc12` [Example 143, (S)-2-[2-(Benzo[1,2,5]thiadiazole-4-sulfonylamino)-4-bromo-benzoylamino]-3-(3-bromo-4-fluoro-phenyl)-propionic acid methyl ester] were, in that order, 158 nM and 200 nM.
With `O=C(O)/C(=C/c1ccc(Cl)c(Cl)c1)NC(=O)c1cc(Cl)c(Cl)cc1NS(=O)(=O)c1cccc2nsnc12` [Example 144, (Z)-2-[2-(Benzo[1,2,5]thiadiazole-4-sulfonylamino)-4,5-dichloro-benzoylamino]-3-(3,4-dichloro-phenyl)-acrylic acid], the Ki in experiment [1] is 501 nM; in experiment [2], 50.1 nM.
As to `O=C(N[C@@H](Cc1ccc(Cl)c(Br)c1)C(=O)O)c1ccc(Cl)cc1NS(=O)(=O)c1cccc2nsnc12` [Example 145, (S)-2-[2-(Benzo[1,2,5]thiadiazole-4-sulfonylamino)-4-chloro-benzoylamino]-3-(3-bromo-4-chloro-phenyl)-propionic acid], the “CCK1 pKi” value in experiment [1] was found to be 6.7. The “CCK2 pKi” value in experiment [2] is listed as 7.4.
